# Data from US11903955B2, “Methods of treating heart failure with reduced ejection fraction” (ASTRAZENECA AB, priority 2019, dated 2024).
# Read-outs that look alike come from different tables or passages of the source. Marks after values point to notes of the source that are not given here.
# Tested on: patients with chronic heart failure with reduced ejection fraction (LVEF ≤40%)
# Conditions: for Cardiovascular death or hospitalization for heart failure, Hazard Ratio (95% CI) / Cardiovascular death, Hazard Ratio (95% CI) / Death from any cause, Hazard Ratio (95% CI) / Hospitalization for heart failure or an urgent heart failure visit, Hazard Ratio (95% CI) / Hospitalization for heart failure, Hazard Ratio (95% CI) / Primary composite outcome, Hazard Ratio (95% CI) / Urgent heart failure visit, Hazard Ratio (95% CI) / Worsening renal function (composite), Hazard Ratio (95% CI) / Total number of (first and recurrent) heart failure hospitalizations and cardiovascular death, rate ratio (95% CI) / HR (95% CI) for primary outcome of CV death or worsening HF: dapagliflozin vs placebo; for Total number of (first and recurrent) heart failure hospitalizations and cardiovascular death, rate ratio (95% CI): LWYY method
# From the text: Eligibility requirements included an age of at least 18 years, New York Heart Association (NYHA) class II, III, or IV symptoms, and an ejection fraction of 40% or less. […] Patients with atrial fibrillation or atrial flutter on their baseline electrocardiogram were required to have a NT-proBNP level of at least 900 pg/mL, irrespective of history of heart failure hospitalization. Patients were required to receive standard drug and device therapy for heart failure including an angiotensin-converting enzyme (ACE) inhibitor, angiotensin receptor blocker (ARB), or sacubitril/valsartan; a beta-blocker, unless contraindicated or not tolerated, and a mineralocorticoid receptor (MR) […], if considered appropriate. Doses were required to be individually optimized, in accordance with the targets recommended in guidelines, and stable for at least 4 weeks (excepting diuretics, which could be dosed flexibly). Investigators were advised that patients with type 2 diabetes should continue to take their glucose-lowering therapies, but these could be adjusted as required. Specifically, the protocol stated that the dose of insulin, sulfonylurea treatment, or both, could be reduced to minimize the risk of hypoglycemia, for example in patients with a baseline hemoglobin A1C (HbA1c) level below 7%.
# All the patients provided written informed consent and entered a 14-day enrollment period during which the trial inclusion and exclusion criteria were checked and baseline information gathered, including findings from clinical examination and laboratory measurements. […] Investigators used an interactive voice or web response system to obtain treatment assignment. Randomization was stratified based on a diagnosis of type 2 diabetes, defined as either an established diagnosis or a HbA1c level of 6.5% or greater (≥48 mmol/mol) confirmed in a central laboratory at screening. Patients were evaluated at 14 days and 60 days after randomization, with a focus on assessment of heart failure and volume status, adverse events, and checking renal function and potassium. Further study visits took place at 4 months and at 4-month intervals thereafter. The protocol required that study drug be permanently discontinued if pregnancy or diabetic ketoacidosis occurred.
# The primary outcome was a composite of a first episode of worsening heart failure or death from cardiovascular causes. An episode of worsening heart failure was either an unplanned hospitalization for heart failure or an urgent heart failure visit requiring intravenous therapy.^14 The first of the secondary outcomes was the composite of heart failure hospitalization or cardiovascular death.
# Outcomes were adjudicated by a clinical-end-points committee, blinded to treatment assignment, according to prespecified criteria.
# Using a two-sided alpha of 5%, we calculated that 844 primary endpoints would provide a statistical power of 90% for the test of the hypothesis. With an expected annual event rate of 11% in the placebo treatment group, approximately 4500 patients were estimated to provide the required number of primary events, based on an anticipated recruitment period of 18 months and an average follow-up period of approximately 24 months. A closed testing procedure was used, including a prespecified hierarchical testing of the primary and secondary endpoints in the order specified above. Type I error was controlled at a two-sided 0.0499 alpha level for multiplicity across primary and secondary endpoints and taking account of one interim efficacy analysis.
# Data from all randomly assigned patients were included in the analyses of the primary and secondary outcomes, according to the intention-to-treat principle. Baseline characteristics were summarized as means and standard deviations, medians and inter-quartile ranges, or percentages.
# [1] = all patients (N = 2373), listed as dapagliflozin
# [2] = all patients, listed as dapagliflozin
smiles,measurement,setting,value
"CCOc1ccc(Cc2cc([C@@H]3O[C@H](CO)[C@@H](O)[C@H](O)[C@H]3O)ccc2Cl)cc1 [Dapagliflozin, dapagliflozin]","Worsening renal function (composite), No. (%)",all patients (N = 2373),28 (1.2) No. (%)
same,"Cardiovascular death or hospitalization for heart failure, No. (%)",[1],382 No. (%)
same,"Cardiovascular death, No. (%)",[1],227 No. (%)
same,"Hospitalization for heart failure, No. (%)",[1],231 (9.7%) No. (%)
same,"Primary composite outcome (urgent heart failure visit, hospitalization for heart failure or cardiovascular death), No. (%)","all patients, 10 mg once daily (N = 2373), median follow-up 18.2 months",386 (16.3) No. (%)
same,"hospitalizations for heart failure, total first and recurrent","all patients, dapagliflozin arm",340
same,"Cardiovascular death or hospitalization for heart failure, Hazard Ratio (95% CI)",No T2DM,0.73 (0.60-0.89)
same,"Cardiovascular death, Hazard Ratio (95% CI)",No T2DM,0.85 (0.66-1.10)
same,"Death from any cause, Hazard Ratio (95% CI)",No T2DM,0.88 (0.70-1.12)
same,"Hospitalization for heart failure or an urgent heart failure visit, Hazard Ratio (95% CI)",No T2DM,0.62 (0.48-0.80)
same,"Hospitalization for heart failure, Hazard Ratio (95% CI)",No T2DM,0.63 (0.48-0.81)
same,"Primary composite outcome, Hazard Ratio (95% CI)",No T2DM,0.73 (0.60 to 0.88)
same,"Urgent heart failure visit, Hazard Ratio (95% CI)",No T2DM,0.25 (0.07-0.89)
same,"Worsening renal function (composite), Hazard Ratio (95% CI)",No T2DM,0.67 (0.30-1.49)
same,"Total number of (first and recurrent) heart failure hospitalizations and cardiovascular death, rate ratio (95% CI)",No T2DM,"0.73 (0.59, 0.91)"
same,"Cardiovascular death or hospitalization for heart failure, Hazard Ratio (95% CI)",T2DM,0.75 (0.63-0.90)
same,"Cardiovascular death, Hazard Ratio (95% CI)",T2DM,0.79 (0.63-1.01)
same,"Death from any cause, Hazard Ratio (95% CI)",T2DM,0.78 (0.63-0.97)
same,"Hospitalization for heart failure or an urgent heart failure visit, Hazard Ratio (95% CI)",T2DM,0.77 (0.61-0.95)
same,"Hospitalization for heart failure, Hazard Ratio (95% CI)",T2DM,0.76 (0.61-0.95)
same,"Primary composite outcome, Hazard Ratio (95% CI)",T2DM,0.75 (0.63 to 0.90)
same,"Urgent heart failure visit, Hazard Ratio (95% CI)",T2DM,0.62 (0.24-1.59)
same,"Worsening renal function (composite), Hazard Ratio (95% CI)",T2DM,0.73 (0.39-1.34)
same,"Total number of (first and recurrent) heart failure hospitalizations and cardiovascular death, rate ratio (95% CI)",T2DM,"0.77 (0.63, 0.94)"
same,"Cardiovascular death or hospitalization for heart failure, Hazard Ratio (95% CI)",all patients,0.75 (0.65-0.85)
same,"Cardiovascular death, Hazard Ratio (95% CI)",all patients,0.82 (0.69-0.98)
same,"Death from any cause, Hazard Ratio (95% CI)",all patients,0.83 (0.71-0.97)
same,"Hospitalization for heart failure or an urgent heart failure visit, Hazard Ratio (95% CI)",all patients,0.70 (0.59-0.83)
same,"Hospitalization for heart failure, Hazard Ratio (95% CI)",all patients,0.70 (0.59-0.83)
same,"Primary composite outcome, Hazard Ratio (95% CI)",all patients,0.74 (0.65-0.85)
same,"Urgent heart failure visit, Hazard Ratio (95% CI)",all patients,0.43 (0.20-0.90)
same,"Worsening renal function (composite), Hazard Ratio (95% CI)",all patients,0.71 (0.44-1.16)
same,"Total number of (first and recurrent) heart failure hospitalizations and cardiovascular death, rate ratio (95% CI)",all patients,0.75 (0.65-0.88)‡
same,"Total number of (first and recurrent) heart failure hospitalizations and cardiovascular death, rate ratio (95% CI)",[2],0.75
same,"Cardiovascular death or hospitalization for heart failure, Hazard Ratio (95% CI)",[2],0.75
same,"Cardiovascular death, Hazard Ratio (95% CI)",[2],0.82
same,"Death from any cause, Hazard Ratio (95% CI)",[2],0.83
same,"Hospitalization for heart failure, Hazard Ratio (95% CI)",[2],0.70
same,"Primary composite outcome, Hazard Ratio (95% CI)",[2],0.74
same,"Worsening renal function (composite), Hazard Ratio (95% CI)",[2],0.71
same,HR (95% CI) for primary outcome of CV death or worsening HF,highest tertile of baseline KCCQ-TSS (>87.5),0.62 (0.46-0.83)
same,HR (95% CI) for primary outcome of CV death or worsening HF,lowest tertile of baseline KCCQ-TSS (≤65.6),0.70 (0.57-0.86)
same,HR (95% CI) for primary outcome of CV death or worsening HF,middle tertile of baseline KCCQ-TSS (65.7-87.5),0.77 (0.61-0.98)
same,numbers of patients who would need to have been treated to prevent one primary event,over the duration of the trial,21
same,hazard ratio for the primary outcome,"patients without diabetes, highest third of glycated hemoglobin (≥6.0%), dapagliflozin versus placebo","0.72 (0.52, 1.00)"
same,hazard ratio for the primary outcome,"patients without diabetes, lowest third of glycated hemoglobin (≤5.6%), dapagliflozin versus placebo","0.74 (95% CI 0.53, 1.04)"
same,hazard ratio for the primary outcome,"patients without diabetes, middle third of glycated hemoglobin (>5.6-<6.0%), dapagliflozin versus placebo","0.71 (0.48, 1.04)"
same,hazard ratio for the primary outcome,"post hoc subgroup: patients not taking sacubitril-valsartan, dapagliflozin to placebo",0.74
same,hazard ratio for the primary outcome,"post hoc subgroup: patients taking sacubitril-valsartan at baseline, dapagliflozin to placebo",0.75
